Columns and labels:
[1] = test system: TLR4; assay: FACS of surface TLR4 on oral keratinocytes; assay type: cell-based, human; details: LPS (10 μg/ml), Phe (10 μg/ml), different concentration of folic acid, 24 hours
Procedure: Flow cytometry. NOKSI cells were seeded in 100 mm plates with a density of 1×10^6 cells per plate. Cells were treated with drugs, LPS, and folic acid alone or in combination. After NOKSI were detached using Corning Cell Lifter (Corning) and 10 mM EDTA in PBS, the cells were washed with FACS buffer (PBS containing 1% BSA [Sigma] and 2 mM EDTA). Cells were stained by immunofluorescence for CD282 (TLR2) and CD284 (TLR4). Fluorescent labeled antibodies at a dilution of 1:1000 in staining buffer with 2% FBS in PBS were added and incubated for 30 min in dark on ice. Cells were centrifuged and washed thrice in staining buffer and passed through a 70 μm cell strainer before data acquisition. Data analysis was performed using FlowJo (TreeStar, Ashland, OR, USA). All incubations were performed on ice.
Oral Keratinocytes Cells were treated with only LPS (10 μg/ml) for 24 hours. […] Cells were treated with LPS (10 μg/ml) and Phe (10 μg/ml) for 24 hours. […] Cells were treated with LPS (10 μg/ml), Phe (10 μg/ml), and FA ([…]) for 24 hours. […] FIG. 16.

[2] = test system: TGF-β secreted by HOF cells; assay: TGF-β ELISA in Human Oral Fibroblast cells; assay type: cell-based; details: HOF treated with conditioned media from Oral Keratinocytes
Procedure: Cell Culture. Normal human oral keratinocytes (NOKSI) and fibroblast (HOF) cells were maintained in Dulbecco […] Eagle's medium (Sigma-Aldrich, St. Louis, MO, USA) supplemented with 10% fetal bovine serum (Atlas Bio-logicals, Fort Collins, CO, USA) and 100 units/mL penicillin and 100 μg/mL streptomycin (LifeTechnologies, Carlsbad, CA, USA). Cells were grown in incubator at 37° C. in a humidified chamber with 5% CO2.
Enzyme linked immunosorbent assay (ELISA). ELISA was conducted with a mouse TNF-α ELISA Kit (PeproTech, USA) and TGF-β Emax ImmunoAssay System (Promega USA) to detect the TNF-α and TGF-β respectively. After normalization of the total cells or tissue protein lysates, 20 μg protein of each sample was used for the detection of TNF-α or TGF-β. ELISA was performed according to the manufacturers' instructions. For TNF-α, 100 ng/100 μl of capture antibody was added to each well of 96 well assay plate and incubated for overnight at room temperature. Blocking buffer of 200 μl per well were added to each well and incubated for 1 hour at room temperature. […] Optical absorbing values were read at 405 and 450 nm and corrected by 650 nm. […] TMB One Solution was added for 15 minutes and the reaction were stopped using 100 μl of 1N hydrochloric acid and the absorbance at 450 nm were recorded on a plate reader. Data were analyzed using excel software. […]

Nc1nc2ncc(CNc3ccc(C(=O)N[C@@H](CCC(=O)O)C(=O)O)cc3)nc2c(=O)[nH]1 [folic acid]
TLR4 receptor on the cell surface [1]: do not alter
amount of TGF-β secreted by HOF cells [2]: reduce TGF-β expression

— patent US20260000496A1, “MATERIALS AND METHODS FOR DRUG-INDUCED GINGIVAL OVERGROWTH” (Optimed Technology, Inc., priority 2019, published 2026)
